Legend:
Assay type in all cases: cell-based, mouse
protein synthesis = experiment: Cycloheximide experiment in Pax5- and CD19-reconstituted Myc5 cells; conditions: 1 μg/ml, over 30 minutes
Source text: All figures except FIGS. 3E and 3H represent immunoblotting analyses of proteins indicated on the left. Actin was used as a loading control. In bracketed panels of FIG. 3A, whole cell lysates from Myc5 cells expressing HA-tagged wild-type or mutant (“mut”) ITAM were subjected to immune-precipitation with an α-HA antibody followed by immunoblotting with antibody against total Lyn, Tyr396-phospho-Lyn, or another α-HA antibody. In the bottom panels, lysates from the same cells were immunoblotted with antibodies against c-Myc, and β-actin. […] Mean fluorescent intensities (MFI) are shown in each plot. […] CHX was added at the concentration of 1 μg/ml for 7.5-30 minutes. In the bottom panels Myc-specific bands were quantitated by densitometry, normalized to actin, and plotted against time after treatment. Note that different exposures are shown for parental and Pax5/CD19-transduced cells to allow accurate band quantitation. […]
Myc5 stably transduced with either Pax5 or CD19 retroviral construct were seeded at 1×10^6/ml in 50 ml conical tubes received cycloheximide (Sigma) treatment at 1 μg/ml, while stimulation with 95% ethanol (sigma) served as control. […] Protein samples were resolved on 10% SDS-PAGE for Western blot analysis. c-Myc protein levels were quantified by densitometry using ImageJ 1.43 (National Institutes of Health) with quantitated values normalized to β-actin.

[1] = test system: Src family tyrosine kinases (SFTKs); experiment: Western blotting with phospho-specific antibodies of MYC5 cells expressing WT or MUT CD19 treated with SU6656
Method: (§1) FIG. 11A provides growth rates of MYC5 tumors expressing either wild type or mutant CD19. FIG. 11B provides immunoblotts of protein lysates obtained from individual tumors in FIG. 11A on day 23. […] Phosphorylation was assessed using Western blotting with phospho-specific antibodies. […] GFP-only-expressing MYC5 cells were used as a control. Cell proliferation was measured using the WST assay at indicated time points.

MYC5/CD19 cells = experiment: WST cell proliferation assay of MYC5/CD19 cells; conditions: CD19mut/PI3K-disabled cells; GFP-only MYC5 cells as control
Method: as §1
Proliferation of Myc5-M5 CD19 transduced cells in vitro were determined using cell proliferation reagent WST-1 (Roche Molecular Biochemicals). Cells were seeded at 1×10^3/well in 100 μl of culture medium were incubated for a total of 72 hours. Proliferation status was determined every 24 hours by incubating with 10 μl of the cell proliferation reagent WST-1 for 4 hours. The absorbance of the treated samples in triplicates were measured against a blank control was measured at 440 nM using a Synergy™ 2 microplate reader (BioTek Instruments).

| SMILES | Myc levels (protein synthesis) | retrovirally transduced Pax5 or CD19 protein expression (protein synthesis) | phospho-JNK levels [1] | cell proliferation (WST assay) (MYC5/CD19 cells) |
| --- | --- | --- | --- | --- |
| C[C@@H]1C[C@@H]([C@H](O)CC2CC(=O)NC(=O)C2)C(=O)[C@@H](C)C1 [CHX, cycloheximide] | clearly down-regulated | no observable effects |  |  |
| CN(C)S(=O)(=O)c1ccc2c(c1)/C(=C/c1cc3c([nH]1)CCCC3)C(=O)N2 [SU6656] |  |  | reduced | selectively suppressed proliferation |
